# Laboratory results taken from patent US6596772B1, “Phosphate mimics and methods of treatment using phosphatase inhibitors” (Sugen, Inc., priority 1999, dated 2003).
# Read-outs that look alike come from different tables or passages of the source.
# What was measured:
# Test in all cases: PTP IC50 assay, pNPP or FDP as substrate
# Format in all cases: biochemical
# [1] = target: T1, PTP MEG2 (Homo sapiens, UniProt P43378)
# T1 construct: made in house; host or cells: E. coli BL-21 (pGEX 6P-1)
# T1 sequence (P43378 262-593 limits assumed): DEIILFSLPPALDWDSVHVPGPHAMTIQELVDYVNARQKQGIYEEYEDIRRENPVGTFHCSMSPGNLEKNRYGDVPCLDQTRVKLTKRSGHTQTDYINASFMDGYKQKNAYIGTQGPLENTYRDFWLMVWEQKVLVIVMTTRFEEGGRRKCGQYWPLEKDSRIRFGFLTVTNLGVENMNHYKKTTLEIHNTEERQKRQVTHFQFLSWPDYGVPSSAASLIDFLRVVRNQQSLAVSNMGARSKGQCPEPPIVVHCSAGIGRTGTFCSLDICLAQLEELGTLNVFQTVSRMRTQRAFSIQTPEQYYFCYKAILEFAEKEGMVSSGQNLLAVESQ
# Protocol: (§1) The following in vitro assay procedure is preferred to determine the level of activity and effect of the different compounds of the present invention on one or more of the PTPs. Similar assays can be designed along the same lines for any PTP using techniques well known in the art.
# (§2) The catalytic assays described herein are performed in a 96-well format. The general procedure begins with the determination of PTP optimal pH using a three-component buffer system that minimizes ionic strength variations across a wide range of buffer pH. Next, the Michaelis-Menten constant, or Km, is determined for each specific substrate-PTP system. This Km value is subsequently used as the substrate reaction concentration for compound screening. Finally, the test PTP is exposed to varying concentrations of compound for fifteen minutes and allowed to react with substrate for ten minutes. The results are plotted as percent inhibition versus compound concentration and the IC50 interpolated from the plot.
# (§3) All assays were performed using pNPP or FDP as substrate. The optimum pH was determined for each PTP used.
# (§4) PTPase activity was assayed at 25° C. in a 100-μl reaction mixture containing an appropriate concentration of pNPP or FDP as substrate. The reaction was initiated by addition of the PTP and quenched after 10 min by addition of 50 μl of IN NaOH. The non-enzymatic hydrolysis of the substrate was corrected by measuring the control without the addition of the enzyme. The amount of p-nitrophenol produced was determined from the absorbance at 410 nm. To determine the kinetic parameter, Km, the initial velocities were measured at various substrate concentrations and the data were fitted to the Michaelis equation where velocity=(Vmax*[S])/(Km+[S]), and [S]=substrate reaction concentration.
# (§5) The effect of the compounds on PTP was evaluated at 25° C. using pNPP or FDP as substrate. PTP was pre-incubated for fifteen minutes with various concentrations of compound. Substrate was then added at a fixed concentration (usually equal to the Km previously calculated). After 10 minutes, NaOH was added to stop the reaction. The hydrolysis of pNPP was followed at 410 nm on the Biotek Powerwave 200 microplate scanning spectrophotometer. The percent inhibition was calculated as follows: Percent Inhibition=[(control signal−compound signal)/control signal] ×100%. The IC50 was then determined by interpolation of a percent inhibition versus compound concentration plot.
# (§6) Plasmids designed for bacterial GST-PTP fusion protein expression were derived by insertion of PCR-generated human PTP fragments into pGEX vectors (Pharmacia Biotech). Several of these constructs were then used to subclone phosphatases into pFastBac-1for expression in Sf-9 insect cells. Oligonucleotides used for the initial amplification of PTP genes are shown below. The cDNAs were prepared using the Gilbo BRL superscript preamplification system on RNAs purchased from Clontech.
# The PTP MEG2 cDNA was amplified from human placenta single strand cDNA (Clontech RNA) using the following oligonucleotides: 5′oligo: 5′-[…]-3′ (SEQ ID NO: 8) 3′oligo: 5′-[…]-3′ (SEQ ID NO: 9) and subsequently ligated into pGex 6P-1 Eco RI/Xho I sites.
# [2] = target: T2, PTP BETA (Homo sapiens, UniProt P23467)
# T2 construct: The catalytic domain was amplified using the following oligonucleotides; made in house; host or cells: E. coli BL-21 (pGEX 6P-1)
# T2 sequence (P23467 1653-1997): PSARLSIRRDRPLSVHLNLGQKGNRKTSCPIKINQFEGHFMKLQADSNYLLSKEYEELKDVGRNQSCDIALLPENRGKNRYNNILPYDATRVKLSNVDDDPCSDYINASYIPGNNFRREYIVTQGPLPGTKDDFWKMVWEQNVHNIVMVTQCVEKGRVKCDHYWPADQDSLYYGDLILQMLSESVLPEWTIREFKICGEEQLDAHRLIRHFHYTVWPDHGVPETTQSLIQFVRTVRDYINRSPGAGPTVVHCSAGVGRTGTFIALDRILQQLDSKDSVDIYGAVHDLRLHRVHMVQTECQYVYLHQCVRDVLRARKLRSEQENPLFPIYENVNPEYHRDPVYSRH
# Protocol: as §1, §2, §3, §4, §5, §6
# The PTP Beta cDNA used has been described earlier (Levy et al., 1993, J. Biol. Chem, 268:10573-10581). The catalytic domain was amplified using the following oligonucleotides: 5′oligo: 5′-[…]-3′ (SEQ ID NO: 16) 3′oligo: 5′-[…]-3′ (SEQ ID NO: 17) and subsequently cloned into the Eco RI/Xho I sites of pGEX 6P-1.
# [3] = target: T3, PTP 1B (Homo sapiens, UniProt P18031)
# T3 construct: made in house; host or cells: Sf-9 insect cells (pFastBac-G2T)
# T3 sequence (P18031 1-435): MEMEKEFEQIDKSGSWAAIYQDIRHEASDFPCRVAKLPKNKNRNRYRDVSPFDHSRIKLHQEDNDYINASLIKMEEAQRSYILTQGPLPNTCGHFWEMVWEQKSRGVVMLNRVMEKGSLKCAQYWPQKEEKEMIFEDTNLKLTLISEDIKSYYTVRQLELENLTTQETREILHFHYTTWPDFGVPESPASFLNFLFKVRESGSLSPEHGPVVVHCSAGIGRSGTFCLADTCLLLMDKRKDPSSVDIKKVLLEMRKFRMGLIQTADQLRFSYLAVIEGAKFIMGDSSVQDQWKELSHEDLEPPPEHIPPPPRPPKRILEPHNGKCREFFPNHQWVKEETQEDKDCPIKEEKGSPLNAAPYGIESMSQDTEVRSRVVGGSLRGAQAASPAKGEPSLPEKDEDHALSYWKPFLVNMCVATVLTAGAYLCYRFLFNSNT
# Protocol: as §1, §2, §3, §4, §5, §6
# The PTP1b cDNA was amplified from human placenta single strand cDNA (Clontech RNA) using the following oligonucleotides: 5′oligo: 5′-[…] (SEQ ID NO: 4) 3′oligo: 5′-[…] (SEQ ID NO: 5) It was subsequently ligated into pFasBac G2TBamH1Xba-1 sites.
# [4] = comparison of R groups, read-out: IC50 MEG2
# [5] = pNPP or FDP as substrate, 25° C., read-out: PTP IC50 MEG2
# [6] = comparison of R groups, read-out: IC50 Beta
# [7] = pNPP or FDP as substrate, 25° C., read-out: PTP IC50 Beta
# [8] = comparison of R groups, read-out: IC50 1B
# [9] = pNPP or FDP as substrate, 25° C., read-out: PTP IC50 1B
SMILES,"IC50 [1, 4] [µM]","IC50 [1, 5] [µM]","IC50 [2, 6] [µM]","IC50 [2, 7] [µM]","IC50 [3, 8] [µM]","IC50 [3, 9] [µM]"
"O=S(=O)(Nc1ccc(-c2nnc(-c3ccc(NS(=O)(=O)C(F)(F)F)cc3)o2)cc1)C(F)(F)F [Example 75, 2,5-Bis(4-trifluoromethylsulfonamidophenyl)-(1,3,4)oxadiazole]",–,12.8,–,2.9,–,8.4
CC(C)(c1ccc(NS(=O)(=O)C(F)(F)F)cc1)c1ccc(C(C)(C)c2ccc(NS(=O)(=O)C(F)(F)F)cc2)cc1 [Example 76],–,12.9,–,6.4,–,2.5
Nc1ccc(Oc2ccc(Oc3ccc(N)cc3)cc2)cc1 [NH2],> 100,–,> 100,–,> 100,–

# The remaining lines, values ahead:
"IC50 [1, 4] [µM]","IC50 [1, 5] [µM]","IC50 [2, 6] [µM]","IC50 [2, 7] [µM]","IC50 [3, 8] [µM]","IC50 [3, 9] [µM]",SMILES
39.4,39.4,12.1,12.1,10.6,10.6,"O=S(=O)(Nc1ccc(Oc2ccc(Oc3ccc(NS(=O)(=O)C(F)(F)F)cc3)cc2)cc1)C(F)(F)F [Example 71, 1,4-Bis(4-trifluoromethylsulfonamidophenoxy)benzene]"
–,> 100,–,> 100,–,> 100,"O=S(=O)(Nc1ccc(Oc2ccc(NS(=O)(=O)C(F)(F)F)cc2)cc1)C(F)(F)F [Example 73, Bis(4-trifluoromethylsulfonamidophenyl) ether]"
–,58.7,–,26.6,–,7.7,"O=S(=O)(Nc1ccc(Oc2cccc(Oc3ccc(NS(=O)(=O)C(F)(F)F)cc3)c2)cc1)C(F)(F)F [Example 74, 1,3-Bis(4-trifluoromethylsulfonamidophenoxy)benzene]"
